Assay results from ChEMBL document CHEMBL5050861 (2021).
pIC50: −log10 of the molar value. Converted amounts (≈) assume the structure as drawn.

Key:
[1] = Inhibition of recombinant mouse GALK1 using ATP as substrate incubated for 1 hr and measured by Kinase-Glo assay; details: for pIC50: read-out: IC50
[2] = Kinetic aqueous solubility of the compound; type: physicochemical; details: buffer; read-out: Kinetic_solubility
[3] = Stability of compound in rat microsomes assessed as half-life; type: ADME, Microsome

SMILES	pIC50 [1]	solubility kinetic [2]	half-life [3]	IC50 [1]
CC1=C(C(=O)Nc2nncs2)C(c2ccccc2Br)N=C(Nc2nc3ccccc3o2)N1 (stereo not given)	5.01	< 1 µg/mL	> 30 min	
COC(=O)c1ccnc(NC(=O)C2=C(C)NC(Nc3nc4ccccc4o3)=NC2c2ccccc2Cl)c1 (stereo not given)	5.26	< 1 µg/mL	18.4 min	
COc1ccc(Cl)c(C2N=C(Nc3nc4ccccc4o3)NC(C)=C2C(=O)Nc2nncs2)c1 (stereo not given)	4.76	< 1 µg/mL	> 30 min	
CC1=C(C(=O)NCc2cnn(Cc3ccccc3)c2)C(c2ccc(C)cc2Cl)N=C(Nc2nc3cccc(N)c3o2)N1 (stereo not given)	5.26	< 1 µg/mL	6.73 min	
CC1=C(C(=O)Nc2ccc(CN)cc2)C(c2ccccc2Cl)N=C(Nc2nc3ccccc3o2)N1 (stereo not given)	5.36	10 µg/mL (≈ 20.5 µM)	72.5 min	
COc1ccccc1CNC(=O)C1=C(C)NC(Nc2nc3ccccc3o2)=NC1c1ccccc1Cl (stereo not given)	4.91	< 1 µg/mL	1.4 min	
CC1=C(C(=O)NCc2cnn(C)c2)[C@@H](c2ccc(C)cc2Cl)N=C(Nc2nc3cccc(N)c3o2)N1	4.51	21.9 µg/mL (≈ 43.4 µM)	7.87 min	
CC1=C(C(=O)Nc2cc(C(=O)O)ccn2)C(c2ccc(N3CCOCC3)cc2Cl)N=C(Nc2nc3ccc(F)cc3o2)N1 (stereo not given)	5.41	> 89 µg/mL	> 30 min	
CC1=C(C(=O)Nc2cc(C(=O)O)ccc2F)C(c2ccccc2Cl)N=C(Nc2nc3ccc(F)cc3o2)N1 (stereo not given)	5.16	35.7 µg/mL (≈ 66.4 µM)	> 30 min	
CCn1ncc(CNC(=O)C2=C(C)NC(Nc3nc4ccc(F)c(N)c4o3)=NC2c2ccc(C)cc2Cl)c1F (stereo not given)	5.96	< 1 µg/mL	7.04 min	
CC1=C(C(=O)Nc2ncc(CO)s2)C(c2ccccc2Cl)N=C(Nc2nc3ccccc3o2)N1 (stereo not given)	4.71	< 1 µg/mL	> 30 min	
O/N=C1\CCCC2=C1C(c1ccccc1Cl)N=C(Nc1nc3ccccc3o1)N2 (stereo not given)	4.96	< 1 µg/mL	5.48 min	
CC1=C(C(=O)Nc2nncs2)C(c2ccncc2Br)N=C(Nc2nc3ccccc3o2)N1 (stereo not given)	4.71	6.5 µg/mL (≈ 12.7 µM)	> 30 min	
CC1=C(C(=O)Nc2nnc(-c3ccncc3)s2)C(c2ccccc2Cl)N=C(Nc2nc3ccccc3o2)N1 (stereo not given)	4.71	< 1 µg/mL	> 30 min	
COc1ccc([C@@H]2N=C(Nc3nc4ccc(F)cc4o3)NC(C)=C2C(=O)Nc2cc(C(=O)O)ccn2)c(Cl)c1	5.70			
CC1=C(C(=O)Nc2nncs2)C(c2ccccc2C(F)(F)F)N=C(Nc2nc3ccccc3o2)N1 (stereo not given)	4.91	< 1 µg/mL	> 30 min	
CC1=C(C(=O)Nc2cc(C(N)=O)ccn2)C(c2ccccc2Cl)N=C(Nc2nc3ccc(F)cc3o2)N1 (stereo not given)	4.71	2.4 µg/mL (≈ 4.62 µM)	> 30 min	
CCn1cc(CNC(=O)C2=C(C)NC(Nc3nc4cccc(N)c4o3)=NC2c2ccc(F)cc2Cl)cn1 (stereo not given)	5.11		18.8 min	
CC1=C(C(=O)Nc2nc(C(=O)O)cs2)C(c2ccccc2Cl)N=C(Nc2nc3ccccc3o2)N1 (stereo not given)	4.71			
CC1=C(C(=O)Nc2cccnc2)C(c2ccccc2Cl)N=C(Nc2nc3ccccc3o2)N1 (stereo not given)	4.91	< 1 µg/mL	20 min	
COc1ccc(C2N=C(Nc3nc4ccccc4o3)NC(C)=C2C(=O)Nc2nncs2)c(Cl)c1 (stereo not given)	5.26	< 1 µg/mL	> 30 min	
CCn1cc(CNC(=O)C2=C(C)NC(Nc3nc4ccc(F)c(N)c4o3)=N[C@H]2c2ccc(C)cc2Cl)cn1	6.01	22.1 µg/mL (≈ 41.1 µM)		
CC1=C(C(=O)NCc2cccc(CO)c2)C(c2ccccc2Cl)N=C(Nc2nc3ccccc3o2)N1 (stereo not given)	4.91	< 1 µg/mL	6.57 min	
CC1=C(C(=O)Nc2ccccn2)C(c2ccccc2Cl)N=C(Nc2nc3ccc(F)cc3o2)N1 (stereo not given)	4.96	< 1 µg/mL	> 30 min	
COC(=O)c1ccnc(NC(=O)C2=C(C)NC(Nc3nc4ccccc4o3)=N[C@H]2c2ccccc2Cl)c1	5.16	< 1 µg/mL	20 min	
CC(C)C1=C(C(=O)Nc2nncs2)C(c2ccccc2Cl)N=C(Nc2nc3ccccc3o2)N1 (stereo not given)	4.81	< 1 µg/mL	> 30 min	

SMILES	pIC50 [1]	solubility kinetic [2]	half-life [3]	IC50 [1]
O=C(Nc1nncs1)C1=C(c2cnccn2)NC(Nc2nc3ccccc3o2)=NC1c1ccccc1Cl (stereo not given)	4.66	2.1 µg/mL (≈ 3.96 µM)	> 30 min	
CC1=C(C(=O)NCc2cnn(C)c2)C(c2ccc(C)cc2Cl)N=C(Nc2nc3ncccc3o2)N1 (stereo not given)		> 49 µg/mL	6.15 min	Not Active
CC1=C(C(=O)Nc2cc(CO)ccn2)C(c2ccccc2Cl)N=C(Nc2nc3ccccc3o2)N1 (stereo not given)	5.01	< 1 µg/mL	> 30 min	
CC1=C(C(=O)NCc2cnn(C)c2C)C(c2ccc(C)cc2Cl)N=C(Nc2nc3ccc(F)cc3o2)N1 (stereo not given)	5.46	< 1 µg/mL	2.99 min	
CC1=C(C(=O)Nc2nncs2)C(c2ccccc2C)N=C(Nc2nc3ccccc3o2)N1 (stereo not given)	4.66	< 1 µg/mL	> 30 min	
CC1=C(C(=O)Nc2ccc(CO)cc2)C(c2ccccc2Cl)N=C(Nc2nc3ccccc3o2)N1 (stereo not given)		< 1 µg/mL	> 30 min	
CC1=C(C(=O)NCc2cnn(C)c2)C(c2ccccc2Cl)N=C(Nc2nc3cccc(N)c3o2)N1 (stereo not given)	5.46	> 72 µg/mL	> 30 min	
CC1=C(C(=O)Nc2ccc(-n3cncn3)cc2)C(c2ccccc2Cl)N=C(Nc2nc3ccccc3o2)N1 (stereo not given)	4.46			
CC1=C(C(=O)Nc2cc(CO)ccn2)C(c2ccccc2Cl)N=C(Nc2nc3ccc(F)cc3o2)N1 (stereo not given)	4.96	< 1 µg/mL	> 30 min	
CC1=C(C(=O)Nc2ccccc2O)C(c2ccccc2Cl)N=C(Nc2nc3ccccc3o2)N1 (stereo not given)	4.76	< 1 µg/mL	17.9 min	
CC1=C(S(C)(=O)=O)C(c2ccccc2Cl)N=C(Nc2nc3ccccc3o2)N1 (stereo not given)	4.71	< 1 µg/mL	9.37 min	
CC1=C(C(=O)NCc2cnn(C)c2)[C@H](c2ccc(C)cc2Cl)N=C(Nc2nc3cccc(N)c3o2)N1	5.80	17.1 µg/mL (≈ 33.9 µM)	18.9 min	
CCn1cc(CNC(=O)C2=C(C)NC(Nc3nc4ccc(F)c(N)c4o3)=NC2c2ccc(Cl)cc2Cl)cn1 (stereo not given)	5.71	< 1 µg/mL	6.79 min	
COC(=O)c1cc(NC(=O)C2=C(C)NC(Nc3nc4ccccc4o3)=NC2c2ccccc2Cl)ccn1 (stereo not given)	4.96	< 1 µg/mL	> 30 min	
CC1=C(C(=O)Nc2cccc(C(N)=O)c2)C(c2ccccc2Cl)N=C(Nc2nc3ccccc3o2)N1 (stereo not given)	4.76	< 1 µg/mL	> 30 min	
CC1=C(C(=O)Nc2cncc(C(=O)O)c2)C(c2ccccc2Cl)N=C(Nc2nc3ccccc3o2)N1 (stereo not given)		60.3 µg/mL (≈ 120 µM)	> 30 min	
CC1=C(C(=O)NCc2cn(C)cn2)C(c2ccccc2Cl)N=C(Nc2nc3ccc(F)cc3o2)N1 (stereo not given)	4.71			
CC1=C(C(=O)Nc2cc(C(=O)O)ccc2C)C(c2ccccc2Cl)N=C(Nc2nc3ccc(F)cc3o2)N1 (stereo not given)	4.76			
CC1=C(C(=O)Nc2nnc(-c3cccnc3)s2)C(c2ccccc2Cl)N=C(Nc2nc3cc(N)ccc3o2)N1 (stereo not given)		1.8 µg/mL (≈ 3.23 µM)	> 30 min	
CC1=C(C(=O)Nc2ccc(-c3cn[nH]c3)cc2)C(c2ccccc2Cl)N=C(Nc2nc3ccccc3o2)N1 (stereo not given)	4.91			
COC(=O)c1cncc(NC(=O)C2=C(C)NC(Nc3nc4ccccc4o3)=NC2c2ccccc2Cl)c1 (stereo not given)		< 1 µg/mL	> 30 min	
CC1=C(C(=O)Nc2cc(C(=O)O)ccn2)C(c2ccc(C)cc2Cl)N=C(Nc2ncc(-c3ccccc3)o2)N1 (stereo not given)		42.2 µg/mL (≈ 77.7 µM)	> 30 min	
COC(=O)Cc1nnc(NC(=O)C2=C(C)NC(Nc3nc4ccccc4o3)=NC2c2ccccc2Cl)s1 (stereo not given)		< 1 µg/mL	8.09 min	
COc1ccc([C@H]2N=C(Nc3nc4ccc(F)cc4o3)NC(C)=C2C(=O)Nc2cc(C(=O)O)ccn2)c(Cl)c1	4.71			
CC1=C(C(=O)Nc2cccc(CCO)c2)C(c2ccccc2Cl)N=C(Nc2nc3ccccc3o2)N1 (stereo not given)			26.6 min	
CC1=C(C(=O)Nc2ccc(C(N)=O)cn2)C(c2ccccc2Cl)N=C(Nc2nc3ccc(F)cc3o2)N1 (stereo not given)	5.16			
